From ChEMBL document CHEMBL5291721, “A preclinical secondary pharmacology resource illuminates target-adverse drug reaction associations of marketed drugs” (Nat Commun, 2023)

Legend:
[1] = molecular target: T1, Alpha-2B adrenergic receptor (Homo sapiens, UniProt P18089)
T1 sequence (P18089 whole entry): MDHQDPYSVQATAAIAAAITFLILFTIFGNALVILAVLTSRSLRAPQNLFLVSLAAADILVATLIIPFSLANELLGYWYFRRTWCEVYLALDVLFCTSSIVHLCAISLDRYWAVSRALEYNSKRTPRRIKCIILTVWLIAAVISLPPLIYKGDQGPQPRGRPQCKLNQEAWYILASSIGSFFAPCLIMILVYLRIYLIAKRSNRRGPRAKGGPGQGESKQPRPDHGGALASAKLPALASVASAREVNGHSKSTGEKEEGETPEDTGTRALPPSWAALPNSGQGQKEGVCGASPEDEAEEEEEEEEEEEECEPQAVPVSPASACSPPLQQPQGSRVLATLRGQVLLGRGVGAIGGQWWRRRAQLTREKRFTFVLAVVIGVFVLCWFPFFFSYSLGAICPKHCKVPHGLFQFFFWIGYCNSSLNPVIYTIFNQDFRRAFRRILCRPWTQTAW

Vasopressin V1a receptor = Vasopressin V1a receptor (Homo sapiens, UniProt P37288)
Chain of Vasopressin V1a receptor (P37288 whole entry): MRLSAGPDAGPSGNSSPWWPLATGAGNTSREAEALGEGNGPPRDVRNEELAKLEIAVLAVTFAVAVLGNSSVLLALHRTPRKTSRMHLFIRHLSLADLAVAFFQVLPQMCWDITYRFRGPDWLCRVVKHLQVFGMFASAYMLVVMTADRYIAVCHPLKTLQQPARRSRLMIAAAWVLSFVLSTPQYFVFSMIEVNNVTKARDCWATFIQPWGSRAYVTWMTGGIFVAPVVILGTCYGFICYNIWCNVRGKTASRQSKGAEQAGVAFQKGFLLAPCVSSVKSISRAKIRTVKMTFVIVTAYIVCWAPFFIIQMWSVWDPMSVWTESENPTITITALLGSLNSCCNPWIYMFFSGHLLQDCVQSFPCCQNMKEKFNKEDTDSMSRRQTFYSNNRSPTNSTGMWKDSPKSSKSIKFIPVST

Endothelin-1 receptor = molecular target: T2, Endothelin-1 receptor (Homo sapiens, UniProt P25101)
T2 sequence (P25101 whole entry): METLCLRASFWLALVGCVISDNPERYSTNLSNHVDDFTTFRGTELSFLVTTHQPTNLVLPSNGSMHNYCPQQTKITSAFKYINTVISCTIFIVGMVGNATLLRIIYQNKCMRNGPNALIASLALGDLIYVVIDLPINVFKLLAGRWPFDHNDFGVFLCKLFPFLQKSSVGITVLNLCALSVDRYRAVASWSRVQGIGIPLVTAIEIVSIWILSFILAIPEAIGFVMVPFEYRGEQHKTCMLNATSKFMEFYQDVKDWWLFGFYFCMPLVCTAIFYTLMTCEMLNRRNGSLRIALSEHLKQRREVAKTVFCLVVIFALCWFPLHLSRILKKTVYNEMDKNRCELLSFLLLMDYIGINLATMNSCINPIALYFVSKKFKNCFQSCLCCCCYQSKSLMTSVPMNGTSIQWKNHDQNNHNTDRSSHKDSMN

Histamine H1 receptor = Histamine H1 receptor (Homo sapiens, UniProt P35367)
Chain of Histamine H1 receptor (P35367 whole entry): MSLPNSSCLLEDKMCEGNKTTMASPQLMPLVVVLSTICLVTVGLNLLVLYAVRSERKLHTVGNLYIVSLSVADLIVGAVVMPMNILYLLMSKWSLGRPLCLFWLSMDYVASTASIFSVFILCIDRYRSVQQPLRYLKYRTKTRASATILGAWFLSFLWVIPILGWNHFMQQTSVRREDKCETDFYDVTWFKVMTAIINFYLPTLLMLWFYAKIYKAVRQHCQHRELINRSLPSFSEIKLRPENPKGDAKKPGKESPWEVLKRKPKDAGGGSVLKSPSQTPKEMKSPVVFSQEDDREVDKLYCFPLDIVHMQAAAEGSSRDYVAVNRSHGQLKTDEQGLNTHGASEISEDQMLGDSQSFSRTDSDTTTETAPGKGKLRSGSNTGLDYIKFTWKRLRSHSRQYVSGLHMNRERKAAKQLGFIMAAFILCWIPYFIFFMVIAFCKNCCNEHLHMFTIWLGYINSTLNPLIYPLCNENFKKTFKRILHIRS

Glucocorticoid receptor = molecular target: T3, Glucocorticoid receptor (Homo sapiens, UniProt P04150)
T3 sequence (P04150 whole entry): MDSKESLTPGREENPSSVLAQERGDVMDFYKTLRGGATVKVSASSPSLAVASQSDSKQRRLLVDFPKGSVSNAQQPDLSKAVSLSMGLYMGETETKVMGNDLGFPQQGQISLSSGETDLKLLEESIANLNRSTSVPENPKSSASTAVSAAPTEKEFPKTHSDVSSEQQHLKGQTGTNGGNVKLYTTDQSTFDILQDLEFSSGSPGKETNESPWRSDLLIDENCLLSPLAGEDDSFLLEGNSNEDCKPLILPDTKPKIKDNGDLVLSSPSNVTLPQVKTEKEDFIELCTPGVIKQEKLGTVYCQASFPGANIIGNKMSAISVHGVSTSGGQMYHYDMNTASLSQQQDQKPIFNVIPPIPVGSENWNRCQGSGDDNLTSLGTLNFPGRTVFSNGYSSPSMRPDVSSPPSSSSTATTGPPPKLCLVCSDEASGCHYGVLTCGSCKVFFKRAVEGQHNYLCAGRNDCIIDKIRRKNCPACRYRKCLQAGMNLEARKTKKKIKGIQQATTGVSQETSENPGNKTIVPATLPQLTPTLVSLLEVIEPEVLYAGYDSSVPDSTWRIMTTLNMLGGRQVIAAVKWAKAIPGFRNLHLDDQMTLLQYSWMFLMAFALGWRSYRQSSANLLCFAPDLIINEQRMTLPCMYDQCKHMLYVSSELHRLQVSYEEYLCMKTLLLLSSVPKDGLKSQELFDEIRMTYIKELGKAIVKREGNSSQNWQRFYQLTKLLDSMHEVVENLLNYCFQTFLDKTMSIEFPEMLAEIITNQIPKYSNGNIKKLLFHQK

Histamine H3 receptor = Histamine H3 receptor (Homo sapiens, UniProt Q9Y5N1)
Chain of Histamine H3 receptor (Q9Y5N1 whole entry): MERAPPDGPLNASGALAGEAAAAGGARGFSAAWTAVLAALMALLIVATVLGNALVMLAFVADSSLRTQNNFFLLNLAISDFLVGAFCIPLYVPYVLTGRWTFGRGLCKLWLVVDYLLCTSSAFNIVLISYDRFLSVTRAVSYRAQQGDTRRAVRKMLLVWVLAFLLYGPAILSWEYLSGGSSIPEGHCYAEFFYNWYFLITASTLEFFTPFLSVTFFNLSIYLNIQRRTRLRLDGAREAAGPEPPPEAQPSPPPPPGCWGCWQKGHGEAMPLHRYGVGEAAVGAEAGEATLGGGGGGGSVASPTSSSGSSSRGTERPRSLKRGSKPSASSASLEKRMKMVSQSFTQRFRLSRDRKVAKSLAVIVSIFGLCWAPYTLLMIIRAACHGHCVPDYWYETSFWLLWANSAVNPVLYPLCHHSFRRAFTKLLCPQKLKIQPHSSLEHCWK

[2] = molecular target: Muscarinic acetylcholine receptor M3 (Homo sapiens, UniProt P20309)
Chain of Muscarinic acetylcholine receptor M3 (P20309 whole entry): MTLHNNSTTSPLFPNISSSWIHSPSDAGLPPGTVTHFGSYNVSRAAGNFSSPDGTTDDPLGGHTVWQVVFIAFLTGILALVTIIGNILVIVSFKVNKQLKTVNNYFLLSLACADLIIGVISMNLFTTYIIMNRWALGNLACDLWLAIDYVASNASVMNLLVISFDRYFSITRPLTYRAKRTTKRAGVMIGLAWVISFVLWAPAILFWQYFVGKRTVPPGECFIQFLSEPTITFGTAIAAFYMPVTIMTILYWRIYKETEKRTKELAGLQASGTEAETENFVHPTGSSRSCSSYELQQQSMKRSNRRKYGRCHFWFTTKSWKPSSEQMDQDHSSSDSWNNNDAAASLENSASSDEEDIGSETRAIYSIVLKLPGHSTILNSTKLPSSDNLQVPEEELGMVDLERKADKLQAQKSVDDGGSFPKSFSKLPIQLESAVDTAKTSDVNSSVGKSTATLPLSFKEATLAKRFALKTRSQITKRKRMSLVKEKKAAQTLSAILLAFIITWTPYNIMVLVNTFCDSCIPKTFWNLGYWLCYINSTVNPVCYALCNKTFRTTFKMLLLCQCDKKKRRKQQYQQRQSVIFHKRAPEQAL

[3] = molecular target: T4, Equilibrative nucleoside transporter 1 (Homo sapiens, UniProt Q99808)
T4 sequence (Q99808 whole entry): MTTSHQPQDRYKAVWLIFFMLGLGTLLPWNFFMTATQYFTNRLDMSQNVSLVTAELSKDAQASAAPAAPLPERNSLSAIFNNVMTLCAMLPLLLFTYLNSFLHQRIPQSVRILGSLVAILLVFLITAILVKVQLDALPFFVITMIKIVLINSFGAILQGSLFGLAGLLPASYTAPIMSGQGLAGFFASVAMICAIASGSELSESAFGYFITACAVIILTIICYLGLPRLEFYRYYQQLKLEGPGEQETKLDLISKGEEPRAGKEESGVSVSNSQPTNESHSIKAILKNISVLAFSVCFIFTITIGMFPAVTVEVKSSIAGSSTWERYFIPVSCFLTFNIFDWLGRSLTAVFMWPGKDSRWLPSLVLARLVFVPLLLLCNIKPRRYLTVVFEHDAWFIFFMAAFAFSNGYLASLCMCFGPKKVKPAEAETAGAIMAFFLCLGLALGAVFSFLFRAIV

[4] = molecular target: T5, Alpha-1A adrenergic receptor (Homo sapiens, UniProt P35348); type: functional, cell-based
T5 sequence (P35348 whole entry): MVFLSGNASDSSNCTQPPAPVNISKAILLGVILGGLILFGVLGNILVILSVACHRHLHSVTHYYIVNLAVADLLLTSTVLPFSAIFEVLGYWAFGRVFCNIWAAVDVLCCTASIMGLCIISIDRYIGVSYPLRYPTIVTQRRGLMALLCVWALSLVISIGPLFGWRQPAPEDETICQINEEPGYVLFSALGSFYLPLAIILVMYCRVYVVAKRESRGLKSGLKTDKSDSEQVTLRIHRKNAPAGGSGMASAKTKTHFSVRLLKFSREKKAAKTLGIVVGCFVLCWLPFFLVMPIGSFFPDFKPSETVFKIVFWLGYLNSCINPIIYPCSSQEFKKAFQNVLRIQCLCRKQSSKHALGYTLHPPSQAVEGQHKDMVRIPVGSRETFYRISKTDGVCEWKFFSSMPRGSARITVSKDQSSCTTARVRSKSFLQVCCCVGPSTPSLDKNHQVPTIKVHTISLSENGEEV

Mu-type opioid receptor = Mu-type opioid receptor (Homo sapiens, UniProt P35372); experiment: biochemical; type: functional
Chain of Mu-type opioid receptor (P35372 whole entry): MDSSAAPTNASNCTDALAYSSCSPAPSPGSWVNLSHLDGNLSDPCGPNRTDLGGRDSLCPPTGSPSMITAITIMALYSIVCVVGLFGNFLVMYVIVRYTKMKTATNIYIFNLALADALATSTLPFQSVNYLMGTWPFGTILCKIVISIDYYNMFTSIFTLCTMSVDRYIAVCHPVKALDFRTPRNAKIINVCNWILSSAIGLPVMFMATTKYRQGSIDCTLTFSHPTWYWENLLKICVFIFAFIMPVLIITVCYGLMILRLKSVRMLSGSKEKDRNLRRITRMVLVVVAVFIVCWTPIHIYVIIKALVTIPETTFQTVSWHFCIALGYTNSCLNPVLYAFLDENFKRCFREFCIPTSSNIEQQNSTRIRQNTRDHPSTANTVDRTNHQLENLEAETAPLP

[5] = molecular target: 5-hydroxytryptamine receptor 2A (Homo sapiens, UniProt P28223); type: functional, cell-based
Chain of 5-hydroxytryptamine receptor 2A (P28223 whole entry): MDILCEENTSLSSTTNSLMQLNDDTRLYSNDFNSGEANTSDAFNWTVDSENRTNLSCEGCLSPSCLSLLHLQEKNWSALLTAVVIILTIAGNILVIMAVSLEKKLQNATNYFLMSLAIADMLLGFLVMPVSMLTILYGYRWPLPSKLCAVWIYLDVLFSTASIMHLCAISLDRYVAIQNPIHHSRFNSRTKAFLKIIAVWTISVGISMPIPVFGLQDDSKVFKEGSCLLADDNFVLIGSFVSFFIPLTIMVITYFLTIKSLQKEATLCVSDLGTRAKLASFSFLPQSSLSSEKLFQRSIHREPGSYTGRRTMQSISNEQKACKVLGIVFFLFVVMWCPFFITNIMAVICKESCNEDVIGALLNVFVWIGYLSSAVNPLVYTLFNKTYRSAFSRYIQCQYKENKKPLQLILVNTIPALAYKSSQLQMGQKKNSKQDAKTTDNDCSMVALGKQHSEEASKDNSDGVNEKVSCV

[6] = molecular target: T5, Alpha-1A adrenergic receptor
Also: assay procedure not described here.

| Compound | AC50 [1] [µM] | AC50 (Vasopressin V1a receptor) [µM] | AC50 (Endothelin-1 receptor) [µM] | AC50 (Histamine H1 receptor) [µM] | AC50 (Glucocorticoid receptor) [µM] | AC50 (Histamine H3 receptor) [µM] | AC50 [2] [µM] | AC50 [3] [µM] | AC50 [4] [µM] | AC50 (Mu-type opioid receptor) [µM] | AC50 [5] [µM] | AC50 [6] [nM] |
| --- | --- | --- | --- | --- | --- | --- | --- | --- | --- | --- | --- | --- |
| C[C@]1(COc2ccc(N3CCC(Oc4ccc(OC(F)(F)F)cc4)CC3)cc2)Cn2cc([N+](=O)[O-])nc2O1 | > 10 | > 10 | > 30 | > 10 | > 30 | > 10 |  |  |  |  |  |  |
| O=C(Nc1nc(-c2cc(Cl)cs2)c(N2CCN(C3CCCCC3)CC2)s1)c1cnc(N2CCC(C(=O)O)CC2)c(Cl)c1 [AVATROMBOPAG] | > 10 | > 10 | > 10 | > 10 |  | > 10 | > 10 | > 10 |  |  |  |  |
| CN(C)C(=O)Oc1cc(OC(=O)N(C)C)cc(C(O)CNC(C)(C)C)c1 (stereo not given) [BAMBUTEROL] |  | > 30 | > 30 |  | > 30 | > 30 |  | > 30 |  |  |  |  |
| C[C@H]1C[C@H]2[C@@H]3CCC4=CC(=O)C=C[C@]4(C)[C@@]3(Cl)[C@@H](O)C[C@]2(C)[C@@]1(O)C(=O)CO [BECLOMETHASONE] |  | > 10 | > 30 |  |  | > 10 |  | > 30 |  |  |  |  |
| CO[C@@]1(NC(=O)CSCC#N)C(=O)N2C(C(=O)O)=C(CSc3nnnn3C)CS[C@@H]21 [CEFMETAZOLE] |  |  |  |  |  |  |  |  | > 30 | > 30 |  |  |
| CO/N=C(\C(=O)N[C@@H]1C(=O)N2C(C(=O)[O-])=C(C[n+]3cccc4c3CCC4)CS[C@H]12)c1csc(N)n1 [CEFPIROME] | > 30 |  |  | > 30 |  |  | > 30 |  | > 30 | > 30 | > 30 |  |
| CC[C@H]1OC(=O)[C@H](C)[C@@H](O[C@H]2C[C@@](C)(OC)[C@@H](O)[C@H](C)O2)[C@H](C)[C@@H](O[C@@H]2O[C@H](C)C[C@H](N(C)C)[C@H]2O)[C@](C)(OC)C[C@@H](C)C(=O)[C@H](C)[C@@H](O)[C@]1(C)O [CLARITHROMYCIN] |  | > 30 | > 30 |  | > 30 | > 30 |  | > 30 | > 30 | > 30 |  |  |
| Oc1c(I)cc(Cl)c2cccnc12 [CLIOQUINOL] | > 30 |  |  | > 30 |  |  | > 30 |  | > 30 | > 30 | > 30 |  |
| C[C@@H]1CCC[C@H](C)N1NC(=O)c1ccc(Cl)c(S(N)(=O)=O)c1 [CLOPAMIDE] | > 30 | > 30 | > 30 | > 30 | > 30 | > 30 | > 30 | > 30 | > 30 | > 30 | > 30 |  |
| CCn1cc(C(=O)O)c(=O)c2cc(F)c(N3CCNCC3)nc21 [ENOXACIN] |  | > 10 | 11.3 |  |  | > 10 |  | > 30 |  |  |  | > 10000 |
| O=C(O)CSCC(=O)NC1CCSC1=O (stereo not given) [ERDOSTEINE] | > 30 | > 30 | > 30 | > 30 |  | > 30 | > 30 | > 30 | > 30 | > 30 | > 30 |  |
| COc1cccc(N(C)C(=S)Oc2ccc3c(c2)CCCC3)n1 [LIRANAFTATE] | > 30 | > 30 | > 30 | > 30 |  | > 30 | > 30 | > 30 | > 30 | > 30 | 7.4 |  |
| N=C(N)c1ccc2cc(OC(=O)c3ccc(N=C(N)N)cc3)ccc2c1 [NAFAMOSTAT] | 12 | > 30 | > 30 | > 30 |  | 7.9 | 15 |  | > 30 | > 30 | > 30 |  |
| c1ccc2c(CC3=NCCN3)cccc2c1 [NAPHAZOLINE] | 0.19 |  |  |  |  |  |  |  | 0.0006 |  |  |  |
| CNC(=O)Oc1ccc2c(c1)[C@]1(C)CCN(C)[C@@H]1N2C [PHYSOSTIGMINE] |  | > 30 | > 30 |  | > 30 | 16 |  | > 30 | > 30 | > 30 |  |  |
| O=C(O)c1cc(O)c2c3nc4ccccc4oc-3cc(=O)c2n1 [PIRENOXINE] | 3.8 | > 30 | > 30 | 11 | > 30 | > 30 | 2.2 | > 30 | > 30 | > 30 | > 30 |  |
| NS(=O)(=O)c1cc(C(=O)O)cc(N2CCCC2)c1Oc1ccccc1 [PIRETANIDE] | > 30 | > 30 | > 30 | > 30 | > 30 | > 30 | > 30 |  |  | > 30 | > 30 |  |
| CNCCCC1c2ccccc2C=Cc2ccccc21 [PROTRIPTYLINE] |  | > 10 |  |  | > 10 |  |  | > 30 |  |  |  | 461 |
| CC(C)=CCOc1ccc(/C=C/C(=O)c2ccc(OCC=C(C)C)cc2OCC(=O)O)cc1 [SOFALCONE] | > 30 | > 30 | > 30 | > 30 | > 30 | > 30 | > 30 | > 30 | > 30 | > 30 | > 30 |  |
| CCSc1ccc2c(c1)N(CCCN1CCN(C)CC1)c1ccccc1S2 [THIETHYLPERAZINE] |  |  |  | 0.17 |  |  |  |  | > 30 |  | 1.6 |  |
